Assay [1] is described as follows: Cytotoxicity against human U87 cells assessed as inhibition of cell proliferation after 72 hrs. It is filed as functional, cell-based, U-87MG ATCC. The conditions noted are these: U-87 MG.
Assay [2] can be described thus: Cytotoxicity against human HCT116 cells assessed as inhibition of cell proliferation after 72 hrs. It is filed as functional, cell-based. Particulars: HCT-116, 72 h.
A further assay relates to K562. As to the kind of experiment: Cytotoxicity against human K562 cells assessed as inhibition of cell proliferation after 72 hrs. It is filed as functional, cell-based. The conditions noted are these: K562, 72 h.
Another assay has as its target Tubulin (Homo sapiens) (UniProt P68371+Q9H4B7+P0DPH7+P68366+Q13509+Q71U36+P04350+Q3ZCM7+P07437+P68363+Q9BQE3+Q6PEY2+Q13885+Q9BVA1+Q9BUF5). As to the kind of experiment: (§1) Inhibition of tubulin (unknown origin) polymerization at 10 mg/ml. Format: protein-complex assay.
The target of assay [3] is Tubulin. As to the kind of experiment: Inhibition of tubulin (unknown origin) polymerization. It is filed as protein-complex assay, Homo sapiens.
Assay [4] addresses Tubulin. The description is as §1. Format: protein-complex assay, Homo sapiens.

SMILES strings stand for the structures.

Broadly, the IC50 is the concentration that gives 50% inhibition. The inhibition is the drop in the measured response relative to a control, in per cent. A lower inhibition goes with a response near the control.

In the case of `C#Cc1ccc2[nH]c3c(c2c1)C/C(C(=O)OC)=C(/C(=O)NC(C)C)N1CC(CC)=CC(C1)C[C@]3(C(=O)OC)c1cc2c(cc1OC)N(C)[C@H]1[C@@](O)(C(=O)OC)[C@H](OC(C)=O)[C@]3(CC)C=CCN4CC[C@]21[C@@H]43` (stereo partly specified), the IC50 was found to be 2000 nM in assay [1], 3000 nM in assay [2] and 600 nM with K562. The compound also gave an inhibition against Tubulin (Homo sapiens) of 16%.

In the case of `CCC1=C[C@@H]2CN(C1)Cc1c([nH]c3ccccc13)[C@@](C(=O)OC)(c1cc3c(cc1OC)N(C)[C@H]1[C@@](O)(C(=O)OC)[C@H](OC(C)=O)[C@]4(CC)C=CCN5CC[C@]31[C@@H]54)C2` [VINORELBINE], the values for the IC50 (in assay [1]; in assay [2]; on Tubulin [3]) were 3.5 nM, 15 nM and 700 nM, respectively.

In the case of `CCC1=CC2CN(C1)/C(C(=O)NC(C)C)=C(/C(=O)OC)Cc1c([nH]c3ccc(I)cc13)[C@@](C(=O)OC)(c1cc3c(cc1OC)N(C)[C@H]1[C@@](O)(C(=O)OC)[C@H](OC(C)=O)[C@]4(CC)C=CCN5CC[C@]31[C@@H]54)C2` (stereo partly specified), the half-maximal inhibitory concentration (IC50) in assay [1] worked out at 3000 nM; in assay [2] it was 5000 nM. At Tubulin (Homo sapiens), this compound gave an inhibition of 44%.

With `CCC1=CC2CN(C1)/C(C(=O)NC(C)C)=C(/C(=O)OC)Cc1c([nH]c3ccc(C)cc13)[C@@](C(=O)OC)(c1cc3c(cc1OC)N(C)[C@H]1[C@@](O)(C(=O)OC)[C@H](OC(C)=O)[C@]4(CC)C=CCN5CC[C@]31[C@@H]54)C2` (stereo partly specified), the results for the IC50 (in assay [1]; in assay [2]; in the assay with K562) were 33 nM, 20 nM and 1 nM, respectively. The compound further gave an inhibition against Tubulin (Homo sapiens) of 0%.

As to `CCC1=CC2CN(/C=C(/C(=O)OC)Cc3c([nH]c4ccc(C=O)cc34)[C@@](C(=O)OC)(c3cc4c(cc3OC)N(C)[C@H]3[C@@](O)(C(=O)OC)[C@H](OC(C)=O)[C@]5(CC)C=CCN6CC[C@]43[C@@H]65)C2)C1` (stereo partly specified), the figures for the IC50 (in assay [1]; in assay [2]; in the assay on K562) were 23 nM, 270 nM and 40 nM, respectively. This compound also had an inhibition at Tubulin (Homo sapiens) of 11%.

As for `CCC1=CC2CN(/C=C(/C(=O)OC)Cc3c([nH]c4ccc(C)cc34)[C@@](C(=O)OC)(c3cc4c(cc3OC)N(C)[C@H]3[C@@](O)(C(=O)OC)[C@H](OC(C)=O)[C@]5(CC)C=CCN6CC[C@]43[C@@H]65)C2)C1` (stereo partly specified), the IC50 was determined as 11 nM in assay [1], 50 nM in assay [2] and 20 nM in the assay on K562. The same compound showed an inhibition against Tubulin (Homo sapiens) of 23%.

Regarding `CC[C@]1(O)C[C@@H]2CN(CCc3c([nH]c4ccccc34)[C@@](C(=O)OC)(c3cc4c(cc3OC)N(C)[C@H]3[C@@](O)(C(=O)OC)[C@H](OC(C)=O)[C@]5(CC)C=CCN6CC[C@]43[C@@H]65)C2)C1` [VINBLASTINE], the IC50 in assay [1] came out at 1 nM; in assay [2], 2 nM; in the assay on K562, 10 nM.

Regarding `CCC1=CC2CN(/C=C(/C(=O)OC)Cc3c([nH]c4ccc(I)cc34)[C@@](C(=O)OC)(c3cc4c(cc3OC)N(C)[C@H]3[C@@](O)(C(=O)OC)[C@H](OC(C)=O)[C@]5(CC)C=CCN6CC[C@]43[C@@H]65)C2)C1` (stereo partly specified), the half-maximal inhibitory concentration (IC50) amounted to 5000 nM in assay [1], 7000 nM in assay [2], 1000 nM with K562 and 6.2 µM against Tubulin [4].

In the case of `CCC1=CC2CN(/C=C(/C(=O)OC)Cc3c([nH]c4ccc(Br)cc34)[C@@](C(=O)OC)(c3cc4c(cc3OC)N(C)[C@H]3[C@@](O)(C(=O)OC)[C@H](OC(C)=O)[C@]5(CC)C=CCN6CC[C@]43[C@@H]65)C2)C1` (stereo partly specified), the IC50 was 3000 nM in assay [1], 3000 nM in assay [2] and 500 nM with K562. The compound also had an inhibition on Tubulin (Homo sapiens) of 23%.

Consider `C#Cc1ccc2[nH]c3c(c2c1)C/C(C(=O)OC)=C\N1CC(CC)=CC(C1)C[C@]3(C(=O)OC)c1cc2c(cc1OC)N(C)[C@H]1[C@@](O)(C(=O)OC)[C@H](OC(C)=O)[C@]3(CC)C=CCN4CC[C@]21[C@@H]43` (stereo partly specified), for which the IC50 was 1600 nM in assay [1], 2500 nM in assay [2] and 600 nM in the assay with K562. Besides, the inhibition against Tubulin (Homo sapiens) amounted to 27%.

Take `CCC1=CC2CN(C1)/C(C(=O)NC(C)C)=C(/C(=O)OC)Cc1c([nH]c3ccc(C=O)cc13)[C@@](C(=O)OC)(c1cc3c(cc1OC)N(C)[C@H]1[C@@](O)(C(=O)OC)[C@H](OC(C)=O)[C@]4(CC)C=CCN5CC[C@]31[C@@H]54)C2` (stereo partly specified): the IC50 in assay [1] was found to be 119 nM; in assay [2], 47 nM; in the assay on K562, 16 nM. This compound returned an inhibition on Tubulin (Homo sapiens) of 25%.
